From patent publication US9212132B2, “(Meth)acrylic acid ester, activation energy ray curing composition, and inkjet recording ink” (Ricoh Company Ltd., priority 2011, dated 2015)

Key:
[1] = Evaluation of photopolymerization reactivity (Photo-DSC); type: physicochemical; conditions: ink: 950 mg monomer compound + 50 mg IRGACURE 907; 365 nm, 200 mW/cm^2
Experimental: Inks for evaluation were each prepared by mixing 950 mg of the monomer compound presented in a respective column of each Example or Comparative Example in Table 1 with 50 mg of 2-methyl-1-[4-(methylthio)phenyl]-2-morpholinopropan-1-one (IRGACURE 907, manufactured by BASF Japan Ltd.) serving as a polymerization initiator, by means of a magnetic stirrer.
An evaluation test for photopolymerization reactivity was performed on each ink using a measuring device combining DSC-7020 manufactured by Seiko Instruments Inc. with a spot light source (LA-410UV) manufactured by HAYASHI WATCH-WORKS CO., LTD. (referred to as Photo-DSC hereinafter). As for the light for radiation, light having wavelength of 365 nm was used, and the light quantity was set to 200 mW/cm^2.
The calorific value of the polymerization reaction carried out after radiation of light was measured by Photo-DSC. A measurement of the calorific value, which was obtained when light was applied for sufficient time to complete a polymerization reaction of the monomer compound, was performed twice on one sample. The calorific value obtained with the first measurement contains the calorific value from radiation of light as well as the calorific value from the polymerization reaction of the monomer compound. Therefore, the sample which completed the polymerization reaction by the first measurement was subjected to radiation of light under the same condition, and the calorific value of the heat other than the heat generated from the polymerization reaction of the monomer compound was measured. The calorific value of the polymerization reaction of the monomer compound was determined with a difference between the calorific value obtained in the first measurement and the calorific value obtained in the second measurement.
As for the exothermic characteristic thereof, the time required to achieve the maximum calorific value from the time for starting radiation of light was determined as T1 (sec.), which was used as an index for comparing the speed of the photopolymerization reaction.

[2] = Evaluation of photocuring ability (photorheometer); type: physicochemical; conditions: 365 nm; for Photocuring (photorheometer) Elastic modulus: ink: 950 mg monomer + 50 mg IRGACURE 907, 50 mW/cm^2, 10 μm gap, saturated elastic modulus; for Photocuring (photorheometer) Curing energy: light energy applied until elastic modulus saturated; for Photocuring (photorheometer) Curing energy / Photocuring result in words (curing state, elastic modulus): 50 mW/cm^2
Experimental: An evaluation for curing ability from photopolymerization was performed on each ink using a measuring device combining a rheometer VAR200AD, manufactured by REOLOGICA Instruments AB, with an LED light source (LIGHTNINGCURE LC-L1) manufactured by Hamamatsu Photonics K.K. (referred to as Photorheometer, hereinafter).
A measurement was performed in the following manner. A sample was placed in a gap of 10 μm between a pair of corm plates each having a diameter of 20 mm, and light (365 nm, 50 mW/cm^2) emitted from the LED light source was applied to the sample. A change in viscoelsticity caused by curing was measured, and the time when the elastic modulus (Pa) was saturated was determined as completion of curing. Based on the measurement result, the terminal point of the elastic modulus was determined, which was determined as an index of a curing level. Typically, the level of 1×10^4 (Pa) is a level where the sample is completely cured. Moreover, light energy (curing energy) applied until the elastic modulus was saturated was calculated by the product of light radiation intensity (here, which was 50 mW/cm^2) and a period (sec.) for light radiation.

Structure (SMILES)	Photopolymerization reactivity (Photo DSC) T1, time required to achieve the maximum calorific value from start of light radiation [1] [s]	Photocuring (photorheometer) Elastic modulus [2]	Photocuring (photorheometer) Curing energy [2]	Photocuring result in words (curing state, elastic modulus) [2]	Photocuring result in words (curing state, elastic modulus) ([2]; listed as Comparative Example 4)	Photocuring result in words (curing state, elastic modulus) ([2]; listed as Comparative Example 7)
C=C(C)C(=O)OCCN1CCOCC1 [Commercial product (e), reference compound]	30.3	8.6*10^4 Pa	2,050 mJ/cm^2			
C=CC(=O)OCCOC(=O)N(CC)CC [B-1]	3.2	9.4*10^3 Pa	520 mJ/cm^2			
C=CC(=O)OCCSCC [Ref. Syn. Ex. 1, 2-acryloxy ethylethyl sulfide, reference compound]	2.5	1.1*10^3 Pa		(not cured)	extremely low elastic modulus	
C=C(C)C(=O)OCC(CC)(COC(=O)C(=C)C)COC(=O)N(CC)CC [J-4]	3.0	1.0*10^5 Pa	110 mJ/cm^2			
C=CC(=O)OCCOC(=O)NCCCC [Commercial product (c), reference compound]	2.5	3.2*10^4 Pa	210 mJ/cm^2			
C=CC(=O)OCC(COC(=O)N(CC)CC)OC(=O)C=C (centres unmarked) [G-3]	2.4	1.0*10^5 Pa	140 mJ/cm^2			
C=CC(=O)OCC(CC)(COC(=O)C=C)COC(=O)N(CC)CC [J-3]	2.4	1.0*10^5 Pa	100 mJ/cm^2			
C=C(C)C(=O)OCCOc1ccccc1 [Commercial product (b), reference compound]	19.3	8.0*10^4 Pa	2,020 mJ/cm^2			
C=CC(=O)OCCOC(=O)N1CCOCC1 [D-1]	3.2	7.9*10^4 Pa	175 mJ/cm^2			
C=C(C)C(=O)OCCSCC [Ref. Syn. Ex. 2, 2-methacryloxyethylethyl sulfide, reference compound]	10.3	<1.0 Pa		(not cured)		extremely low elastic modulus
C=C(C)C(=O)OCCOC(=O)N1CCOCC1 [D-2]	7.0	7.6*10^4 Pa	380 mJ/cm^2			
C=CC(=O)OCCOC(=O)N1CCCCC1 [E-1]	4.5	5.0*10^4 Pa	380 mJ/cm^2			
C=C(C)C(=O)OCCOC(=O)N1CCCCC1 [E-2]	12.0	9.0*10^4 Pa	840 mJ/cm^2			
C=CC(=O)OCCOc1ccccc1 [Commercial product (a), reference compound]	2.5	4.8*10^4 Pa	200 mJ/cm^2			
C=CC(=O)OCCN1CCOCC1 [Commercial product (d), reference compound]	4.5	1.3*10^4 Pa	365 mJ/cm^2			
C=CC(=O)OC1CCN(C(=O)OCC)CC1 [F-1]	3.2	8.4*10^4 Pa	150 mJ/cm^2			
C=C(C)C(=O)OCC(COC(=O)N(CC)CC)OC(=O)C(=C)C (centres unmarked) [G-4]	4.8	1.0*10^5 Pa	210 mJ/cm^2			
C=C(C)C(=O)OCCOC(=O)N(CC)CC [B-2]	10.9	8.0*10^4 Pa	1,950 mJ/cm^2			
C=C(C)C(=O)OC1CCN(C(=O)OCC)CC1 [F-2]	7.0	9.4*10^4 Pa	430 mJ/cm^2			
